# Source: patent publication US12319703B2, “Macrocyclic fused pyrazoles as Mcl-1 inhibitors” (ASCENTAGE PHARMA (SUZHOU) CO., LTD., priority 2019, dated 2025)
# pIC50: −log10 of the molar value.
# What was measured:
# [1] = target: T1, Mcl-1 protein (residues 171-323) (Homo sapiens, UniProt Q07820); assay: Inhibition of Mcl-1 by fluorescence polarization (FP) competitive binding assay; conditions: FAM-Bid tracer 2 nM, Mcl-1 20 nM, 30 min
# T1 construct: Tag-free Mcl-1 protein (residues 171-323) was used in the FP assay
# Method: Inhibition of Mcl-1 by Fluorescence Polarization (FP) Assay.
# The method used a fluorescein labelled peptide (FAM-Bid) which binds to the Mcl-1 protein leading to an increased anisotropy measured in milli-polarization (mP) values using a plate reader.
# A 10-points serial dilution of each compound was prepared in DMSO and 5 μL solution was transferred into flat bottomed, 96-well back plate (final DMSO concentration 5%). 120 μL of Buffer (PBS, 0.01% BGG (Sigma Cat. #SRE0011), 0.01% Triton X-100), containing the Fluorescein labelled peptide (Final concentration 2 nM) and Mcl-1 protein (final concentration 20 nM) was then added. […] 10-points dose response curves were plotted with GraphPad software using Sigmoidal Dose-Response Model and the IC50 values were determined by nonlinear regression fitting of the competition curves.
# OPM-2 cells = assay: Cell viability assay (OPM-2 cells), CCK-8; assay type: cell-based; conditions: Homo sapiens, OPM-2, 24 h, WST, 5% FBS, read-out: OPM2 (WST, 5% FBS)
# Method: Cell Viability Assay (OPM-2 Cells)
# OPM-2 cells were obtained from Deutsche Sammlung von Mikroorganismen und Zellkulturen GmbH (DSMZ). […]
# The effect of representative Compounds of the Disclosure on cell viability was determined using Cell Counting Kit-8 (CCK-8) assay (Shanghai Life iLab Bio Technology) according to the manufacturer's instructions. Each tested compound was serially diluted in culture medium, 100 μL of the compound dilution was added into 96-well plates. 100 μL of an OPM-2 cell suspension (20000 cells/well) in culture medium were seeded into the corresponding well of the plate and the cells were incubated at 37° C. in an atmosphere of 5% CO2 for 24 hours. In the next day, 20 μL of CCK-8 solution was added to each well of the plate and incubated for 4 hours.
# The plates were read at 450 nm on the microplate spectrophotometer (SpectraMax plus 384, Molecular devices). The readings were normalized to the vehicle cells, and the IC50 was calculated by nonlinear regression analysis using GraphPad Prism 6 software.
# NCI-H929 cells = assay: Cell viability assay (NCI-H929 cells), CCK-8; assay type: cell-based; conditions: Homo sapiens, NCI-H929, 24 h, WST, 5% FBS
# Method: Cell Viability Assay (NCI-H929 Cells)
# NCI-H929 cells were obtained from American Type Culture Collection (ATCC). Cells were maintained in the recommended culture medium (RPMI 1640) with 10% FBS and 0.05 mM BME at 37° C. and an atmosphere of 5% CO2.
# The effect of Compounds on cell viability was determined using Cell Counting Kit-8 (CCK-8) assay according to the manufacturer's instructions. 95 μL of NCI-H929 cell suspension (20000 cells/well) in culture medium were seeded into 96-well plates and cultured 4 hrs. Each tested compound was serially diluted in DMSO, then 5 μL of the compound or DMSO was diluted in 95 μL medium once more. At last, 5 μL of the compound dilution was added to the corresponding well of the cell plate. After the addition of the tested compound, the cells were incubated at 37° C. in an atmosphere of 5% CO2 for 24 hrs. At the end, 10 μL of CCK-8 solution was added to each well of the plate and incubated for 1-4 hours. The plates were read at 450 nm on the microplate reader (BioTek Synergy 1MF). The readings were normalized to the vehicle cells, and the IC50 was calculated by nonlinear regression analysis using GraphPad Prism 6 software.
# T1 sequence (Q07820 171-323): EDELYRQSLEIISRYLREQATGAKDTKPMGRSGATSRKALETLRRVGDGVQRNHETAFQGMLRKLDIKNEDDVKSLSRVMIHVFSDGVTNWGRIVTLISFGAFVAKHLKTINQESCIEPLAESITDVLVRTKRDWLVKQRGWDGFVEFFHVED
Compound,pIC50 [1],pIC50 (OPM-2 cells),pIC50 (NCI-H929 cells)
"Cn1c(C(=O)O)c2c3ccc(Cl)c(c31)-c1c(nn3c1CCC3)CSCc1ccc(cn1)CSc1cc(c3ccc(F)cc3c1)OCCC2 [compound 31, 1^6-chloro-9^6-fluoro-1^1-methyl-2^5,2^6-dihydro-1^1H,2^4H-10-oxa-4,8-dithia-1(7,3)-indola-2(3,2)-pyrrolo[1,2-b]pyrazola-6(2,5)-pyridina-9(3,1)-naphthalenacyclotridecaphane-1^2-carboxylic acid]",7.85,6.90,7.20
"Cn1nc2cc1CSc1cc(c3ccc(F)cc3c1)OCCCc1c(C(=O)O)n(C)c3c(c(Cl)ccc13)-c1c(nn3c1CCC3)CN(S(=O)(=O)Cc1ccccc1)C2 [compound 41, (Z)-4-(benzylsulfonyl)-1^6-chloro-9^6-fluoro-1,6^1-dimethyl-2^5,2^6-dihydro-1^1H,2^4H,6^1H-10-oxa-8-thia-4-aza-1(7,3)-indola-2(3,2)-pyrrolo[1,2-b]pyrazola-6(3,5)-pyrazola-9(3,1)-naphthalenacyclotridecaphane-1^2-carboxylic acid]",7.92,6.49,6.44
"Cn1c(C(=O)O)c2c3ccc(Cl)c(c31)-c1c(nn3c1CCC3)CSCc1cc(on1)CSc1cc(c3ccccc3c1)OCCC2 [compound 8, (Z)-1^6-chloro-1^1-methyl-2^5,2^6-dihydro-1^1H,2^4H-10-oxa-4,8-dithia-6(3,5)-isoxazola-1(7,3)-indola-2(3,2)-pyrrolo[1,2-b]pyrazola-9(3,1)-naphthalenacyclotridecaphane-1^2-carboxylic acid]",7.99,< 5.00,5.53
"Cn1nc2cc1CSc1cc(c3ccccc3c1)OCCCc1c(C(=O)O)n(C)c3c(c(Cl)ccc13)-c1c(nn3c1CCCC3)CSC2 [compound 20, (Z)-1^6-chloro-1^1,6^1-dimethyl-2^4,2^5,2^6,2^7-tetrahydro-1^1H,6^1H-10-oxa-4,8-dithia-2(3,2)-pyrazolo[1,5-a]pyridina-1(7,3)-indola-6(3,5)-pyrazola-9(3,1)-naphthalenacyclotridecaphane-1^2-carboxylic acid]",7.82,6.76,7.31
"CC(=O)N1Cc2cc(n(C)n2)CSc2cc(c3ccccc3c2)OCCCc2c(C(=O)O)n(C)c3c(c(Cl)ccc23)-c2c(nn(C)c2C)C1 [compound 35, (Z)-4-acetyl-1^6-chloro-1^1,2^1,2^5,6^1-tetramethyl-1^1H,2^1H,6^1H-10-oxa-8-thia-4-aza-1(7,3)-indola-2(4,3),6(3,5)-dipyrazola-9(3,1)-naphthalenacyclotridecaphane-1^2-carboxylic acid]",7.80,6.12,6.67
"Cn1nc2cc1CSc1cc(c3ccccc3c1)OCCCc1c(C(=O)O)n(C)c3c(c(Cl)ccc13)-c1c(nn3c1CCC3)CS(=O)(=O)C2 [compound 9, (Z)-1^6-chloro-1^1,6^1-dimethyl-2^5,2^6-dihydro-1‘H,2^4H,6^1H-10-oxa-4,8-dithia-1(7,3)-indola-2(3,2)-pyrrolo[1,2-b]pyrazola-6(3,5)-pyrazola-9(3,1)-naphthalenacyclotridecaphane-1^2-carboxylic acid 4,4-dioxide]",7.89,5.93,6.39
"Cn1nc2cc1CSc1cc(c3ccc(F)cc3c1)OCCCc1c(C(=O)O)n(C)c3c(c(Cl)ccc13)-c1c(nn3c1COCC3)CN(S(C)(=O)=O)C2 [compound 42, (Z)-1^6-chloro-9^6-fluoro-1^1,6^1-dimethyl-4-(methylsulfonyl)-2^6,2^7-dihydro-1^1H,2^4H,6^1H-10-oxa-8-thia-4-aza-2(3,2)-pyrazolo[5,1-c][1,4]oxazina-1(7,3)-indola-6(3,5)-pyrazola-9(3,1)-naphthalenacyclotridecaphane-1^2-carboxylic acid]",7.77,6.45,6.58
"Cn1nc2cc1CSc1cc(c3ccc(Cl)cc3c1)OCCCc1c(C(=O)O)n(C)c3c(c(Cl)ccc13)-c1c(nn3c1COCC3)CSC2 [compound 19, (Z)-1^6,9^6-dichloro-1^1,6^1-dimethyl-2^6,2^7-dihydro-1^1H,2^4H,6^1H-10-oxa-4,8-dithia-2(3,2)-pyrazolo[5,1-c][1,4]oxazina-1(7,3)-indola-6(3,5)-pyrazola-9(3,1)-naphthalenacyclotridecaphane-1^2-carboxylic acid]",7.80,6.42,6.60
"Cn1nc2cc1CSc1cc(c3ccccc3c1)OCCCc1c(C(=O)O)n(C)c3c(c(Cl)ccc13)-c1c(nn3c1CN(S(C)(=O)=O)CC3)CSC2 [compound 25, (Z)-1^6-chloro-1^1,6^1-dimethyl-2^5-(methylsulfonyl)-2^4,2^5,2^6,2^7-tetrahydro-1^1H,6^1H-10-oxa-4,8-dithia-2(3,2)-pyrazolo[1,5-a]pyrazina-1(7,3)-indola-6(3,5)-pyrazola-9(3,1)-naphthalenacyclotridecaphane-1^2-carboxylic acid]",7.83,5.04,5.30
"Cn1nc2cc1CSc1cc(c3ccccc3c1)OCCCc1c(C(=O)O)n(C)c3c(c(Cl)ccc13)-c1c(nn3c1OCC3)CSC2 [compound 6, (Z)-1^6-chloro-1^1,6^1-dimethyl-2^2,2^3-dihydro-1^1H,6^1H-10-oxa-4,8-dithia-2(7,6)-pyrazolo[5,1-b]oxazola-1(7,3)-indola-6(3,5)-pyrazola-9(3,1)-naphthalenacyclotridecaphane-1^2-carboxylic acid]",7.82,5.87,6.63
"Cc1cc2ccc1CSCc1nn3c(c1-c1c(Cl)ccc4c(c(C(=O)O)n(C)c14)CCCOc1cc(cc4cc(F)ccc14)SC2)CCC3 [compound 29, 1^6-chloro-9^6-fluoro-1^1,6^2-dimethyl-2^5,2^6-dihydro-1^1H,2^4H-10-oxa-4,8-dithia-1(7,3)-indola-2(3,2)-pyrrolo[1,2-b]pyrazola-9(3,1)-naphthalena-6(1,4)-benzenacyclotridecaphane-1^2-carboxylic acid]",7.83,6.46,6.80
"Cc1c2c(nn1C)CN(CCO)Cc1cc(n(C)n1)CSc1cc(c3ccccc3c1)OCCCc1c(C(=O)O)n(C)c3c-2c(Cl)ccc13 [compound 50, (Z)-1^6-chloro-4-(2-hydroxyethyl)-1^1,2^1,2^5,6^1-tetramethyl-1^1H,2^1H,6^1H-10-oxa-8-thia-4-aza-1(7,3)-indola-2(4,3), 6(3,5)-dipyrazola-9(3,1)-naphthalenacyclotridecaphane-1^2-carboxylic acid]",7.70,6.41,7.18
"Cc1c(Cl)cc2cc1SCc1cc(nn1C)CSCc1nn3c(c1-c1c(Cl)ccc4c(c(C(=O)O)n(C)c14)CCCO2)CCCC3 [Cpd. No. 37, (Z)-1^6,9^5-dichloro-1^1,6^1,9^6-trimethyl-2^4,2^5,2^6 2^7-tetrahydro-1^1H,6^1-10-oxa-4,8-dithia-2(3,2)-pyrazolo[1,5-a]pyridina-1(7,3)-indola-6(3,5)-pyrazola-9(1,3)-benzenacyclotridecaphane-1^2-carboxylic acid]",7.42,5.98,6.27
"Cn1nc2cc1CSc1cc(c3ccc(F)cc3c1)OCCCc1c(C(=O)O)n(C)c3c(c(Cl)ccc13)-c1c(C(F)F)nn(C)c1CN(S(C)(=O)=O)C2 [compound 51, (Z)-1^6-chloro-2^3-(difluoromethyl)-9^6-fluoro-1^1,2^1,6^1-trimethyl-4-(methylsulfonyl)-1^1H,2^1H,6^1H-10-oxa-8-thia-4-aza-1(7,3)-indola-2(4,5),6(3,5)-dipyrazola-9(3,1)-naphthalenacyclotridecaphane-1^2-carboxylic acid]",7.72,6.82,6.96
